Data reported in the NIST ThermoML archive (doi:10.1021/je3013638).

Conditions: Liquid, Closed cell (Static) method

Nc1cc(Cl)cc(Cl)c1 [3,5-dichloroaniline]
Conditions	vapor or sublimation pressure [kPa]
446.6 K	10.25
453.88 K	12.95
457.69 K	14.44
463.14 K	16.64
464.4 K	17.2
466.41 K	18.21
468.53 K	19.57
469.09 K	19.87
470.18 K	20.2
473.66 K	22.16
474.48 K	23.01
475.29 K	23.48
477.65 K	24.67
481.31 K	27.19
484.05 K	29.6
487.88 K	32.05
490.85 K	35.09
492.54 K	36.63
495.3 K	38.71
497.31 K	41.11
500.72 K	44.06
503.96 K	47.64
507.34 K	51.52
509.76 K	55.17
512.08 K	58.05
513.94 K	60.01
516.09 K	63.13
518.15 K	66.66
519.82 K	68.55
521.75 K	71.6
523.61 K	75.31
525.72 K	78.65
528.31 K	82.54
530.51 K	87.17
532.9 K	91.08
534.94 K	95.84
